How the values were obtained:
[1] = Metabolic stability in human liver microsomes assessed as parent compound remaining at 0.1 uM after 60 mins in presence of NADPH by LC-MS/MS analysis; type: ADME, Microsome; details: read-out: Stability
[2] = Metabolic stability in rat liver microsomes assessed as parent compound remaining at 0.1 uM after 60 mins in presence of NADPH by LC-MS/MS analysis; type: ADME, Microsome; details: read-out: Stability
[3] = Metabolic stability in mouse liver microsomes assessed as parent compound remaining at 0.1 uM after 60 mins in presence of NADPH by LC-MS/MS analysis; type: ADME, Microsome; details: read-out: Stability
[4] = Half life in Balb/c mouse at 2 mg/kg, iv by LC-MS/MS analysis; type: ADME, organism-based; details: in vivo
[5] = Blood clearance in Balb/c mouse at 2 mg/kg, iv by LC-MS/MS analysis; type: ADME, organism-based; details: whole blood
[6] = Volume of distribution in Balb/c mouse at 2 mg/kg, iv by LC-MS/MS analysis; type: ADME, organism-based; details: in vivo
[7] = Cmax in Balb/c mouse at 20 mg/kg, po by LC-MS/MS analysis; type: ADME, organism-based; set-up: dose 20 mg/kg, route oral; details: in vivo
[8] = Tmax in Balb/c mouse at 20 mg/kg, po by LC-MS/MS analysis; type: ADME, organism-based; details: in vivo
[9] = Oral bioavailability in Balb/c mouse at 20 mg/kg by LC-MS/MS analysis; type: ADME, organism-based; details: in vivo
[10] = AUC (0 to infinity) in Balb/c mouse at 20 mg/kg, po by LC-MS/MS analysis; type: ADME, organism-based; set-up: dose 20 mg/kg, route oral, time infinity; details: in vivo
[11] = AUC (0 to infinity) in Balb/c mouse at 2 mg/kg, iv by LC-MS/MS analysis; type: ADME, organism-based; set-up: dose 2 mg/kg, route intravenous, time infinity; details: in vivo

| SMILES | remaining at 1 h, 0.1 µM [1] | remaining at 1 h, 0.1 µM [2] | remaining at 1 h, 0.1 µM [3] | also measured |
| --- | --- | --- | --- | --- |
| Fc1ccc(-c2nc3cnc(Nc4ccc(N5CCN(CC6CC6)CC5)cn4)cc3[nH]2)cc1F | 7% | 9% | 14% | – |
| FC(F)(F)c1ccc(-c2nc3cnc(Nc4ccc(N5CCN(CC6CC6)CC5)cn4)cc3[nH]2)cn1 | 93% | 55% | 68% | – |
| Fc1ccc(Nc2cc3[nH]c(Nc4ccc(N5CCNCC5)cn4)nc3cn2)cc1C(F)(F)F | 92% | 59% | 55% | – |
| Fc1ccc(-c2nc3cnc(Nc4ccc(N5CCNCC5)cn4)cc3[nH]2)cc1F | 92% | 73% | 75% | – |
| FC1(F)CC(c2nc3cnc(Nc4ccc(N5CCN(CC6CC6)CC5)cn4)cc3[nH]2)C1 | 86% | 52% | 54% | – |
| O=C(c1ccnc(Nc2cc3[nH]c(-c4ccc(F)c(C(F)(F)F)c4)nc3cn2)c1)N1CCN(C2CC2)CC1 | 77% | 53% | 93% | – |
| CC(C)(C)N1CCN(C(=O)c2ccnc(Nc3cc4[nH]c(-c5cccc(C(F)(F)F)c5)nc4cn3)c2)CC1 | 65% | 48% | 26% | half-life [4]: 19 h; clearance [5]: 68 mL/min/kg; Vd [6]: 117 L/kg; Cmax [7]: 40 nM; Tmax [8]: 0.5 h; bioavailability [9]: 2%; AUC(0-inf) [10]: 0.2 µM·h; AUC(0-inf) [11]: 0.933 µM·h |
| CC(C)CN1CCN(c2ccc(Nc3cc4[nH]c(C5CCC(F)(F)CC5)nc4cn3)nc2)CC1 | 59% | 64% | 61% | – |
| Fc1ccc(-c2nc3cnc(Nc4ccc(C5CCNCC5)cn4)cc3[nH]2)cc1F | 98% | 97% | 87% | – |
| Fc1ccc(Nc2cc3[nH]c(Nc4cc(N5CCNCC5)ccn4)nc3cn2)cc1C(F)(F)F | 98% | 73% | 78% | – |
| Fc1ccc(-c2nc3cnc(Nc4ccc(N5CCN(CC6CC6)CC5)cn4)cc3[nH]2)cc1C(F)(F)F | 52% | 36% | 41% | – |

— ChEMBL document CHEMBL4308849, “Antimalarial Lead-Optimization Studies on a 2,6-Imidazopyridine Series within a Constrained Chemical Space To Circumvent Atypical Dose-Response Curves against Multidrug Resistant Parasite Strains” (J Med Chem, 2018)
